How the values were obtained:
[1] = system: plasma hemostasis; experiment: Partial activated thromboplastin time (PATT) after intravenous administration; type: in vivo, rabbit; details: for effect on the PATT (overall): doses 15.0, 30.0, 60.0 mg/kg
Experimental: The investigations were performed on 72 rabbits of the “Chinchilla” breed with a mass of 2.5±0.3 kg, who were administered which solutions of compounds 2, 15, 21, 37 in doses of 15, 30 and 60 mg/kg intravenously. The experiments included the thrombin-test (series No. 7300) and the coagulability-test (series No. 5000) purchased from the scientific-and-production association (SPA) “Renam”, thromboplastin (series No. 240600) and calcium chloride purchased from the SPA “MedioLab”
The static parameters of the blood and plasma coagulation (partial activated thromboplastin time, thrombin time, maximum coagulation activity (test for auto coagulation) were determined using the Behnk Electronic coagulometer (Germany). The operating principle of this instrument is based on the fact that the formed blood clot breaks the contacts of the pulse counter in the flask-pin circuit, said pin permanently oscillating in a vertical plane. The moment of formation of the clot is registered by stopping the stop watch hand.
The measurements were effected at a constant temperature of 37° C. maintained by a temperature control unit.
Compounds 2, 15, 21, 37 according to the invention at a concentration of 15, 30 and 60 mg/kg were introduced to the above experimental animals intravenously, and their blood samples were taken off 15, 30, 60 and 120 minutes after the administration.
The blood plasma samples deprived of thrombocytes obtained as described above in an amount of 0.1 ml were put in a coagulometer flask and heated for 1 minute at 37° C., then 0.1 ml of 0.277% solution of calcium chloride was added and the blood clotting time was registered. The coagulation time T in seconds of the control plasma and plasma obtained after intravenous administration after 15, 30, 60 and 120 minutes were compared.

[2] = system: indicator enzymes in blood plasma; experiment: Morphine abstinence model: indicator enzymes AST, ALT, γ-GTP in blood plasma; type: in vivo, rats Wistar
Experimental: (§1) The experiments were carried out on rats in series of 7 animals on each compound according to the invention. Non-morphinized animal with not administered with compounds according to the invention were used as a control group. […] Then the rats were decapitated, the blood from somnolent arteries was collected in test tubes with solution EDTA as an anticoagulant, centrifuged at 1500 g for 15 minutes at 4° C.
To estimate possible hepatoprotective action of the compounds according to the invention under conditions of development of an oxidizing stress in the liver cells, effect of these compounds on the most important biochemical blood indexes, in particular, on the content in blood plasma of indicator enzyme of aspartateaminotransferase (AST), alanineaminotransferase (ALT), γ-glutamiletranspeptidase (γ-GTP) was investigated. The content of enzymes was estimated by their catalyzing activity in blood plasma.
The activity of AST, ALT and γ-GTP was determined by means of diagnostic sets DiaSys, Germany.

[3] = system: metabolism of nitrogen oxide; experiment: Morphine abstinence model: nitrites and nitrates NOX− in blood plasma, liver and brain; type: in vivo, rats Wistar
Experimental: as §1
To estimate the intensity of metabolism of nitrogen oxide in rats, quantitative determination of stable metabolites of nitrogen oxide—nitrites and nitrates NOX^− in the blood plasma, supernatanates of the liver and thymus gland, a study was conducted by a spectrometric method, and in the brain supernatanates by a […] method.
The spectrometric method is based the reaction of nitrites with the Griss reagent (a mixture of 2% solution of sulfanilamide and 0.2% N-(1-naphthyl)ethylene diamine. At the first step the nitrite reacts with sulfanilamide with formation of diazonium salt, and then with the second component to form azo dye with an adsorption maximum at 540 nm. For reduction of nitrates into nitrites, a fermentative method was used with bacterial reductase nitrate (Grisham M. B. et al., 1995). The samples of plasma and supernatant of the liver deproteinizated at 100° C. for 5 minutes incubated for 30 minutes at 37° C. in 50.0 mM of HEPES pH 7.4 in the presence of 0.2 unit/ml of Aspergillus reductase nitrate, 5.0 mkM of FAD and 0.1 mM of NAD-Ph. At the end of the reaction lactate dehydrogenase and pyruvate were added for isolation of NAD-Ph interfering with the Griss reaction. Then the Griss reagent was added and after 10-minute incubation the light absorption of the samples was measured at 540 nm. To amount of NOX^− was calculated using sodium nitrate as a standard.
The fluorometric method is based on calculation of the nitrite level by the intensity fluorescence of 2,3-diaminonaphthotriazole, a product of reaction of 2,3-diaminonaphthalene (DAN) and nitrite in an acidic medium (Misko T. R., Schilling R. J., Salvemini D. et al. “A fluorometric assay for the measurement of nitrite of biological samples”. Anal. Biochem., 1993, v. 214, p. 11-16). The brain supernatants deproteinizated at 100° C. were placed in a nitrite regenerating system containing 0.125 unit/ml of nitrate reductases, 25 mkM NADPh and 25 mkM FAD prepared in a 20-mM Tris-HCl buffer with pH 7.6 and incubated for 30 minutes at 37° C. The lactatedehydrogenase/pyruvate system was used for oxidation of the NADPh. Then 316 mkM of the DAN solution in 0.62 M of hydrochloric acids were added and the mixture was incubated for 10 minutes in darkness.
280 mM of NaOH were added for stabilization of the fluorescence of the formed 2,3-diaminonaphthotriazole. The fluorescence intensity was measured in the spectrofluorimeter Hitachi F-3000 at a wavelength of excitation of 365 nm and an emission of 405 nm. The concentration of NOX^− in the brain was calculated by means of a standard solution of sodium nitrate.

[4] = compound alone 20.0 mg/kg intramuscularly
[5] = morphinized rats then compound 20.0 mg/kg intramuscularly

Nc1ccnc2c(=O)n([C@@H]3O[C@H](CO)[C@@H](O)[C@H]3O)[nH]c(=O)c12 [Compound 2, 4-amino-7-(β-D-ribofuranosile)pyrido[2,3-d]-6H-pyridazine-5,8-dione]
T, s after 15 minutes (PATT) ([1]; dose 15.0 mg/kg intravenously): 37.0 ± 0.1 s | T, s after 30 minutes (PATT) ([1]; dose 15.0 mg/kg intravenously): 37.0 ± 0.2 s | T, s after 60 minutes (PATT) ([1]; dose 15.0 mg/kg intravenously): 36.9 ± 0.1 s | T, s after 120 minutes (PATT) ([1]; dose 15.0 mg/kg intravenously): 37.0 ± 0.3 s | T, s after 15 minutes (PATT) ([1]; dose 30.0 mg/kg intravenously): 32.7 ± 0.5 s | T, s after 30 minutes (PATT) ([1]; dose 30.0 mg/kg intravenously): 32.0 ± 0.1 s | T, s after 60 minutes (PATT) ([1]; dose 30.0 mg/kg intravenously): 32.2 ± 0.1 s | T, s after 120 minutes (PATT) ([1]; dose 30.0 mg/kg intravenously): 32.1 ± 0.2 s | T, s after 15 minutes (PATT) ([1]; dose 60.0 mg/kg intravenously): 32.3 ± 0.2 s | T, s after 30 minutes (PATT) ([1]; dose 60.0 mg/kg intravenously): 32.4 ± 0.1 s | T, s after 60 minutes (PATT) ([1]; dose 60.0 mg/kg intravenously): 32.3 ± 0.1 s | T, s after 120 minutes (PATT) ([1]; dose 60.0 mg/kg intravenously): 32.4 ± 0.1 s | effect on the PATT (overall) [1]: do not affect the PATT

Nc1cccc2c(=O)[nH][nH]c(=O)c12.[Na] [Compound 15, sodium salt of 5-amino-benzo[d]-3H-pyridazine-1,4-dione]
T, s after 15 minutes (PATT) ([1]; dose 15.0 mg/kg intravenously): 37.0 ± 0.1 s | T, s after 30 minutes (PATT) ([1]; dose 15.0 mg/kg intravenously): 37.0 ± 0.2 s | T, s after 60 minutes (PATT) ([1]; dose 15.0 mg/kg intravenously): 36.9 ± 0.1 s | T, s after 120 minutes (PATT) ([1]; dose 15.0 mg/kg intravenously): 37.0 ± 0.3 s | T, s after 15 minutes (PATT) ([1]; dose 30.0 mg/kg intravenously): 32.9 ± 0.8 s | T, s after 30 minutes (PATT) ([1]; dose 30.0 mg/kg intravenously): 32.1 ± 0.1 s | T, s after 60 minutes (PATT) ([1]; dose 30.0 mg/kg intravenously): 32.0 ± 0.2 s | T, s after 120 minutes (PATT) ([1]; dose 30.0 mg/kg intravenously): 32.0 ± 0.1 s | T, s after 15 minutes (PATT) ([1]; dose 60.0 mg/kg intravenously): 32.2 ± 0.1 s | T, s after 30 minutes (PATT) ([1]; dose 60.0 mg/kg intravenously): 32.2 ± 0.1 s | T, s after 60 minutes (PATT) ([1]; dose 60.0 mg/kg intravenously): 32.1 ± 0.2 s | T, s after 120 minutes (PATT) ([1]; dose 60.0 mg/kg intravenously): 32.2 ± 0.1 s | effect on the PATT (overall) [1]: do not affect the PATT | ALT, Ci, mE/l, Control + compound [2, 4]: 113.48 ± 2.39 mE/l | AST, Ci, mE/l, Control + compound [2, 4]: 173.46 ± 5.63 mE/l | γ-GTP, Ci, mE/l, Control + compound [2, 4]: 7.03 ± 2.82 mE/l | ALT, Ci, mE/l, control + Morphine + Compound [2, 5]: 121.08 ± 5.04 mE/l | AST, Ci, mE/l, control + Morphine + Compound [2, 5]: 195.57 ± 18.68 mE/l | γ-GTP, Ci, mE/l, control + Morphine + Compound [2, 5]: 10.69 ± 1.84 mE/l | Nitrites in blood plasma, Control + Compound [3, 4]: 14.39 ± 0.84 mkmol/ml | Nitrites in brain, Cortex of cerebrum, Control + Compound [3, 4]: 4.31 ± 0.37 nmol/mg of protein | Nitrites in brain, Hypothalamus, Control + Compound [3, 4]: 6.77 ± 0.83 nmol/mg of protein | Nitrites in brain, Mesencephalon, Control + Compound [3, 4]: 6.65 ± 0.70 nmol/mg of protein | Nitrites in liver, Control + Compound [3, 4]: 0.259 ± 0.019 nmol/mg of protein | Nitrites in blood plasma, Control + Morphine + compound [3, 5]: 13.91 ± 1.91 mkmol/ml | Nitrites in brain, Cortex of cerebrum, Control + Morphine + compound [3, 5]: 4.72 ± 0.37 nmol/mg of protein | Nitrites in brain, Hypothalamus, Control + Morphine + compound [3, 5]: 6.57 ± 0.88 nmol/mg of protein | Nitrites in brain, Mesencephalon, Control + Morphine + compound [3, 5]: 5.50 ± 0.43 nmol/mg of protein | Nitrites in liver, Control + Morphine + compound [3, 5]: 0.285 ± 0.02 nmol/mg of protein
